# Test results reported in patent publication US20260365696A1, “INHIBITORS OF PTP1B / NCK1 INTERACTION AND METHODS OF MAKING AND USING SAME” (Radella Pharmaceuticals LLC, priority 2023, published 2026).
# Non-standard residues stand in square brackets, D forms with d. Residues, ends and D or L forms follow the SMILES beside them. pGlu = O=C1CC[C@@H](C(=O)O)N1
# Molecular target: T1, SH3-2 domain of NCK1 (Homo sapiens, UniProt P16333)
# T1 construct: To amplify the NCK1 SH3-2 domain, the primers; 10xHis tag with TEV site (vector pSF-OXB20-NH2-10HIS) (N, cleaved yes); made in house; host or cells: E. coli C43(DE3)
# Assay: Isothermal titration calorimetry (ITC) binding to NCK1 SH3-2 domain
# Conditions: Alanine scanning of the MD17 15-mer peptide; ITC, 25 °C, pH 8.0
# Source text: Human PTP1B cDNA (NM_002827) and human NCK1 cDNA (NM 006153) were obtained (Origene, MD, USA). PTP1B Primers were designed to amplify the ORFs with added homology to the cut vector (EcoRI-digested pSF-OXB20-NH2-10HIS) in the forward primer sequence. To amplify full-length PTP1B, the primers ptp1b_FL_fwd ([…]) (SEQ ID NO: 159) and ptp1b_FL_rev ([…]) (SEQ ID NO: 160) were used. To amplify truncations of PTP1B, the following primer pairs were used: ptp1b_FL-Fwd and one of Ptplb_323stop_rev (gtgcaggaggagttcgaatt[…]) (SEQ ID NO: 161), ptp1b_344stop_rev ([…]) (SEQ ID NO: 162) or ptp1b_278stop_rev([…]) (SEQ ID NO: 163). To amplify the NCK1 SH3-2 domain, the primers ncklsh32_fwd ([…]) (SEQ ID NO: 164) and ncklsh32_rev ([…]) (SEQ ID NO: 165) were used. The amplified fragments were purified using a DNA clean-up kit according to manufacturer's instructions (QIAquick PCR purification kit, Qiagen).
# To produce and purify fusion proteins, a culture was inoculated with 1% of overnight-cultured inoculum. Protein expression was carried out under the conditions described above, scaled up as necessary. Cells expressing the recombinant proteins were harvested in 50 mL tubes by centrifugation and stored at −80 °C. Cells containing the expressed gene product were thawed over ice and resuspended in Extraction buffer (10 mM Tris, pH 7.4 or 10 mM Sodium Phosphate, pH 8.0; 300 mM NaCl, 1 mM DTT or TCEP; 0-10% glycerol and 1 μg lysozyme) and sonicated over ice (4 °C) for 3 min total using pulses of 5 s with 15 s intervals, using a wide probe at 15 amplitude microns (Soniprep 150, MSE). Insoluble material was removed from the lysate by centrifugation at 20K rpm for 20-60 min at 4 °C. Supernatant was filtered through a 0.22 μm PVDF filter membrane and applied to 1-2 5 mL HisTrap FF Crude (Cytiva) prepacked Ni columns and connected to an AKTA explorer. After thorough washing with binding buffer (10 mM Tris, pH 7.4 or 10 mM Sodium Phosphate, pH 8.0; 300 mM NaCl; 1 mM DTT or TCEP and 25 mM Imidazole), protein was eluted using elution buffer (10 mM Tris, pH 7.4 or 10 mM Sodium Phosphate, pH 8.0; 150-300 mM NaCl; 1 mM DTT or TCEP and 250 mM Imidazole). Fractions containing protein of interest were confirmed by SDS PAGE. Protein was diluted with GF buffer (10 mM Tris, pH 7.4 or 10 mM Sodium Phosphate, pH 8.0; 150-300 mM NaCl) and subjected to TEV protease treatment overnight at 4-10 °C. Following proteolytic digestion, HIS-tag and TEV protease were removed by filtration through a clean 5 mL HisTrap FF Crude (Cytiva) prepacked Ni column. Protein was concentrated on a PES ultrafiltration device by centrifugation at 4000 rpm at 4 °C, and protein was polished via a HiPrep S-100 26/60 (Cytiva) using GF buffer (as described above). Purified proteins were concentrated using ultrafiltration, and protein concentration was determined using ultraviolet-visible spectroscopy. The integrity and identity of all proteins were verified by mass spectrographic analysis.
# Isothermal titration calorimetry (ITC) was used to determine binding affinities for peptides against the SH3-2 domain of NCK1. Experiments were conducted at 25 °C using either a MicroCal iTC200 or MicroCal PEAQ-ITC calorimeter. The buffer used for all ITC experiments was 10 mM sodium [COMPOUND LEFT OUT] mM sodium chloride (pH=8.0). A series of peptides (concentration 3-7.5 mM) were titrated in to NCK1 SH3-2 domain (concentration 0.125-0.3 mM) using the following conditions: one injection of 0.2 μL followed by 19 injections of 2 μL, 120-150 seconds spacing between injections, at 25 °C. The data were fit using analysis software provided by the manufacturer and affinity values were calculated. The best fitting occurred when the number of sites was between 0.8 and 1.2. The experiments were repeated twice for a total of three times, and the average binding affinity for each peptide was generated. […]
row,Compound,Kd
1,Ac-APPEHIPPPPRPPKR-NH2 [MSJ012],≤ 300 µM
2,Ac-PAPEHIPPPPRPPKR-NH2 [MSJ013],≤ 300 µM
3,Ac-PPAEHIPPPPRPPKR-NH2 [MSJ014],≤ 300 µM
4,Ac-PPPAHIPPPPRPPKR-NH2 [MSJ015],≤ 300 µM
5,Ac-PPPEAIPPPPRPPKR-NH2 [MSJ016],≤ 300 µM
6,Ac-PPPEHAPPPPRPPKR-NH2 [MSJ017],≤ 300 µM
7,Ac-PPPEHIAPPPRPPKR-NH2 [MSJ018],≤ 300 µM
8,Ac-PPPEHIPAPPRPPKR-NH2 [MSJ019],≤ 300 µM
9,Ac-PPPEHIPPAPRPPKR-NH2 [MH001],≤ 300 µM
10,Ac-PPPEHIPPPARPPKR-NH2 [MH002],> 1000 µM
11,Ac-PPPEHIPPPPAPPKR-NH2 [MH003],≤ 300 µM
12,Ac-PPPEHIPPPPRAPKR-NH2 [MH004],≤ 300 µM
13,Ac-PPPEHIPPPPRPAKR-NH2 [MH005],> 1000 µM
14,Ac-PPPEHIPPPPRPPAR-NH2 [MH006],≤ 300 µM
15,Ac-PPPEHIPPPPRPPKA-NH2 [MH007],> 1000 µM

# Same assay, conditions: Alanine scanning of the MD20 6-mer peptide; ITC, 25 °C, pH 8.0
row,Compound,Kd
1,"Ac-ARPPKR-NH2 [MH008, Ac-ARPPKR-NH2]",> 1000 µM
2,"Ac-PAPPKR-NH2 [MH009, Ac-PAPPKR-NH2]",≤ 300 µM

# Same assay, conditions: Modified MD18/MD20 peptides; ITC, 25 °C, pH 8.0
row,Compound,Kd
1,"N=C(N)NCCC[C@H](NC(=O)[C@H](CCCCN)NC(=O)[C@@H]1CCCN1C(=O)[C@@H]1CCCN1C(=O)[C@H](CCCNC(=N)N)NC(=O)[C@@H]1CCCN1C(=O)[C@@H]1CCC(=O)N1)C(N)=O [MH043, H-Pyr-PRPPKR-NH2] ([pGlu]PRPPKR-NH2)",≤ 300 µM
2,"N=C(N)NCCC[C@H](NC(=O)[C@H](CCCCN)NC(=O)[C@@H]1CCCN1C(=O)[C@@H]1CCCN1C(=O)[C@H](CCCNC(=N)N)NC(=O)[C@@H]1CCC(=O)N1)C(N)=O [MH044, H-Pyr-RPPKR-NH2] ([pGlu]RPPKR-NH2)",> 1000 µM
3,"CCNC(=O)[C@H](CCCNC(=N)N)NC(=O)[C@H](CCCCN)NC(=O)[C@@H]1CCCN1C(=O)[C@@H]1CCCN1C(=O)[C@H](CCCNC(=N)N)NC(=O)[C@@H]1CCCN1C(C)=O [MH045, Ac-PRPPKR-NHEt] (Ac-PRPPKR-NHEt)",≤ 300 µM
4,"CCNC(=O)[C@H](CCCNC(=N)N)NC(=O)[C@H](CCCCN)NC(=O)[C@@H]1CCCN1C(=O)[C@@H]1CCCN1C(=O)[C@H](CCCNC(=N)N)NC(=O)[C@@H]1CCCN1C(=O)[C@@H]1CCCN1C(C)=O [MH046, Ac-PPRPPKR-NHEt] (Ac-PPRPPKR-NHEt)",≤ 300 µM
5,"Ac-APRPPKR-NH2 [MH047, Ac-APRPPKR-NH2]",≤ 300 µM

# Same assay, conditions: N- or C-terminal extensions; ITC, 25 °C, pH 8.0; 30-mers tested one to three times
row,Compound,Kd
1,Ac-HEDLEPPPEHIPPPPRPPKR-NH2 [MH090],≤ 300 µM
2,Ac-PPPEHIPPPPRPPKRILE-NH2 [MH077],≤ 300 µM
3,Ac-PPPEHIPPPPRPPKRILEPH-NH2 [MH089],≤ 300 µM
4,Ac-PPPEHIPPPPRPPKRILEPHNGKCR-NH2 [MH134],≤ 300 µM
5,Ac-PPPEHIPPPPRPPKRILEPHNGKCREFFPN-NH2 [MH137],≤ 300 µM

# Same assay, conditions: Peptide truncation analysis; ITC, 25 °C, pH 8.0
row,Compound,Kd
1,"CC(=O)N1CCC[C@H]1C(=O)N[C@@H](CCCCN)C(=O)N[C@@H](CCCNC(=N)N)C(N)=O [MH014, Ac-PKR-NH2] (Ac-Pro-Lys-Arg-NH2)",> 1000 µM
2,"CC(=O)N1CCC[C@H]1C(=O)N1CCC[C@H]1C(=O)N[C@@H](CCCCN)C(N)=O [MH015, Ac-PPK-NH2] (Ac-Pro-Pro-Lys-NH2)",> 1000 µM
3,"CC(=O)N[C@@H](CCCNC(=N)N)C(=O)N1CCC[C@H]1C(=O)N1CCC[C@H]1C(=O)N[C@@H](CCCCN)C(N)=O [MH016, Ac-RPPK-NH2] (Ac-RPPK-NH2)",> 1000 µM
4,"CC(=O)N1CCC[C@H]1C(=O)N1CCC[C@H]1C(=O)N[C@@H](CCCCN)C(=O)N[C@@H](CCCNC(=N)N)C(N)=O [MH017, Ac-PPKR-NH2] (Ac-PPKR-NH2)",> 1000 µM
5,"CC(=O)N1CCC[C@H]1C(=O)N[C@@H](CCCNC(=N)N)C(=O)N1CCC[C@H]1C(N)=O [MH019, Ac-PRP-NH2] (Ac-Pro-Arg-Pro-NH2)",> 1000 µM
6,"CC(=O)N[C@@H](CCCNC(=N)N)C(=O)N1CCC[C@H]1C(=O)N1CCC[C@H]1C(N)=O [MH020, Ac-RPP-NH2] (Ac-Arg-Pro-Pro-NH2)",> 1000 µM
7,"CC(=O)N1CCC[C@H]1C(=O)N[C@@H](CCCNC(=N)N)C(=O)N1CCC[C@H]1C(=O)N1CCC[C@H]1C(N)=O [MH021, Ac-PRPP-NH2] (Ac-PRPP-NH2)",> 1000 µM
8,"Ac-APRPPKR-NH2 [MH047, Ac-APRPPKR-NH2]",≤ 300 µM
9,Ac-EHIPPPPRPPKR-NH2 [MH028],≤ 300 µM
10,Ac-HIPPPPRPPKR-NH2 [MH027],≤ 300 µM
11,Ac-IPPPPRPPKR-NH2 [MH026],≤ 300 µM
12,Ac-PEHIPPPPRPPKR-NH2 [MH029],≤ 300 µM
13,Ac-PPEHIPPPPRPPKR-NH2 [MH030],≤ 300 µM

# Same assay, conditions: Sliding window peptide analysis; ITC, 25 °C, pH 8.0
row,Compound,Kd
1,"Ac-EHIPPP-NH2 [MH039, Ac-EHIPPP-NH2]",> 1000 µM
2,"Ac-IPPPPR-NH2 [MH038, Ac-IPPPPR-NH2]",> 1000 µM
3,"Ac-PPEHIP-NH2 [MH040, Ac-PPEHIP-NH2]",> 1000 µM
4,"Ac-PPPPRP-NH2 [MH037, Ac-PPPPRP-NH2]",> 1000 µM

# Same assay, conditions: exemplary control peptides; ITC, 25 °C, pH 8.0
row,Compound,Kd
1,"Ac-PAVPPRP-NH2 [MH082, Ac-PAVPPRP-NH2, reference compound]",> 1000 µM

# Same assay, conditions: substitutions at position 1 of MD18; ITC, 25 °C, pH 8.0
row,Compound,Kd
1,"Ac-APRPPKR-NH2 [MH047, Ac-APRPPKR-NH2]",≤ 300 µM
2,"Ac-CPRPPKR-NH2 [MH070, Ac-CPRPPKR-NH2]",≤ 300 µM
3,"Ac-DPRPPKR-NH2 [MH083, Ac-DPRPPKR-NH2]",≤ 300 µM
4,"Ac-EPRPPKR-NH2 [MH071, Ac-EPRPPKR-NH2]",≤ 300 µM
5,"Ac-FPRPPKR-NH2 [MH073, Ac-FPRPPKR-NH2]",≤ 300 µM
6,"Ac-GPRPPKR-NH2 [MH091, Ac-GPRPPKR-NH2]",≤ 300 µM
7,"Ac-HPRPPKR-NH2 [MH072, Ac-HPRPPKR-NH2]",≤ 300 µM
8,"Ac-IPRPPKR-NH2 [MH095, Ac-IPRPPKR-NH2]",≤ 300 µM
9,"Ac-KPRPPKR-NH2 [MH103, Ac-KPRPPKR-NH2]",≤ 300 µM
10,"Ac-LPRPPKR-NH2 [MH099, Ac-LPRPPKR-NH2]",300 to 600 µM
11,"Ac-MPRPPKR-NH2 [MH109, Ac-MPRPPKR-NH2]",≤ 300 µM
12,"Ac-NPRPPKR-NH2 [MH069, Ac-NPRPPKR-NH2]",≤ 300 µM

# Same assay, conditions: substitutions at position 3 of MD18; ITC, 25 °C, pH 8.0
row,Compound,Kd
1,"Ac-PPCPPKR-NH2 [MH061, Ac-PPCPPKR-NH2]",≤ 300 µM
2,"Ac-PPDPPKR-NH2 [MH084, Ac-PPDPPKR-NH2]",≤ 300 µM
3,"Ac-PPEPPKR-NH2 [MH058, Ac-PPEPPKR-NH2]",≤ 300 µM
4,"Ac-PPFPPKR-NH2 [MH066, Ac-PPFPPKR-NH2]",≤ 300 µM
5,"Ac-PPGPPKR-NH2 [MH092, Ac-PPGPPKR-NH2]",600 to 1000 µM
6,"Ac-PPHPPKR-NH2 [MH057, Ac-PPHPPKR-NH2]",≤ 300 µM
7,"Ac-PPIPPKR-NH2 [MH096, Ac-PPIPPKR-NH2]",≤ 300 µM
8,"Ac-PPKPPKR-NH2 [MH055, Ac-PPKPPKR-NH2]",≤ 300 µM
9,"Ac-PPLPPKR-NH2 [MH100, Ac-PPLPPKR-NH2]",≤ 300 µM
10,"Ac-PPMPPKR-NH2 [MH110, Ac-PPMPPKR-NH2]",≤ 300 µM
11,"Ac-PPNPPKR-NH2 [MH060, Ac-PPNPPKR-NH2]",≤ 300 µM
12,"Ac-PPPPPKR-NH2 [MH106, Ac-PPPPPKR-NH2]",≤ 300 µM
